pEC50: −log10 of the molar value. Where two headings read alike, the source gives them in different places.
Target: T1, mGluR2 receptor (metabotropic glutamate receptor 2) (Homo sapiens, UniProt Q14416)
T1 construct: expressed in transfected cells
Assay: mGluR2 Potentiator Screen, FLIPR, EC10-EC20 glutamate challenge
Format: cell-based
Description: Procedure for mGluR2 Potentiator Screen NLB methods EC10-EC20 Challenge Cell Culture and Plating:
Cells used for this screen are HEK cells stably transfected with the mGluR2 receptor (metabotropic glutamate receptor 2) and the Gα15 G protein. Clones were identified by functional activity (FLIPR). Cells are grown in growth media containing: DMEM High Glucose with Glutamine and Na Pyruvate (GIBCO), 10% (v/v) Heat inactivate FBS (GIBCO), G418 500 ug/ml (from 50 mg/ml stock) (GIBCO) and Blasticidin 3 ug/ml (from 5 mg/ml stock made in H2O) (Invitrogen).
2 days before the assay cell are trypsinized with 0.25% trysin/EDTA (GIBCO), spun down at 1000 rpm for 5 minutes, resuspended in growth media and plated on polystyrene 384 well black wall 1 clear bottom poly-D-lysine coated plates at a density of approximately 18,000 cells/well in a volume of 50 μL per well. One day before the assay the growth media is removed from the plates by flicking, and replaced with media containing DMEM High Glucose without Glutamine and Na Pyruvate (GIBCO) and 10% (v/v) dialyzed FBS (GIBCO). The reason for the removal of glutamine the day before the assay is to minimize the amount of glutamate that will be present during the assay, as endogenous glutarnate released from the cells can reduce the fluorescent response and interfere with the FLIPR screen.
FLIPR Methods and Data Analysis:
On the day of the assay, the FLIPR assay is performed using the following methods.
The pH is adjusted to 7.4 with 1 M NaOH. Prepare a 2 mM (approx.) stock solution of Fluo-4,am (Molecular Probes) dye in DMSO-22 μl DMSO per 50 ug vial (440 μL per 1 mg vial). Make a 1 mM (approx.) flou-4, PA working solution per vial by adding 22 μl of 20% pluronic acid (PA), (Molecular Probes) in DMSO to each 50 ug vial (440 μL per 1 mg vial). Prepare a 250 mM Probenecid (Sigma) stock solution by dissolving 0.71 g into 5 ml 1N NaOH and 5 ml assay buffer (for each liter of assay wash buffer)L Make 4 uM (approx.) dye incubation media by adding […] per 11 ml DMEM high glucose without glutamine (220 ml per 1 mg vial). Add 110 μL probenecid stock per 11 ml (2.5 mM final [concentration]). To the dye media add 3 units/ml of glutamic-pyruvic transaminase (GPT, Sigma) and 3 mM Na Pyruvate. The assay has worked with dye concentrations from 2 uM to 8 uM dye as well. To the assay buffer from drug preparation, add 1.83 mls DMSO and 400 μL 15.8% P104 (from New Leads biology) per liter for final concentrations of 0.18% DMSO and 0.006% P104. To the assay buffer for cell washing, add probenecid in the same manner and concentration that was used for the dye media.
Remove growth media from cell plates by flicking. Add 50 μl/well dye solution. Incubate 1 hour at 37° C. and 5% CO2. Remove dye solution and wash 3 times with assay buffer+probenecid (100 μl probenecid stock per 10 ml buffer), leaving 30 μL/well assay buffer. Wait at least 10-15 minutes. Compounds and agonist challenge additions are performed with the FLIPR. The 1st addition is for test compounds, which are added as 15 μL of 4×[concentration] of potentiator. The second 2nd addition is 15 μL of 4×[concentration] of agonist or challenge. This achieves 1× concentration of all compounds only after 2nd addition. The 1st and 2nd additions are performed separately using the FLIPR, which give 2 different data files. Compounds are pretreated at least 30 minutes before agonist addition,
Results are analyzed by dividing the peak fluorescent value of the FLIPR response by the […] to achieve a ratio response. The ratios are then analyzed by curve fitting programs. […] Maximum values for dose response curves (forced fitting) are derived from standards on the plate.
Compound Preparation and Glutamate Challenge:
Compounds are delivered as 10 mM DMSO stocks or as powders, Powders are solubilized in DMSO at 10 mM (as solubility allows). Compounds are sonicated in a heated water bath (35-40° C.) for at least 20 minutes.

[1] = mGluR2 potentiator screen, FLIPR, EC10-EC20 glutamate challenge
[2] = HEK cells stably transfected with mGluR2 and Gα15, FLIPR (Fluo-4), potentiation of an EC10 to EC20 concentration of glutamate, Table 9

T1 sequence (Q14416 19-872, species assumed): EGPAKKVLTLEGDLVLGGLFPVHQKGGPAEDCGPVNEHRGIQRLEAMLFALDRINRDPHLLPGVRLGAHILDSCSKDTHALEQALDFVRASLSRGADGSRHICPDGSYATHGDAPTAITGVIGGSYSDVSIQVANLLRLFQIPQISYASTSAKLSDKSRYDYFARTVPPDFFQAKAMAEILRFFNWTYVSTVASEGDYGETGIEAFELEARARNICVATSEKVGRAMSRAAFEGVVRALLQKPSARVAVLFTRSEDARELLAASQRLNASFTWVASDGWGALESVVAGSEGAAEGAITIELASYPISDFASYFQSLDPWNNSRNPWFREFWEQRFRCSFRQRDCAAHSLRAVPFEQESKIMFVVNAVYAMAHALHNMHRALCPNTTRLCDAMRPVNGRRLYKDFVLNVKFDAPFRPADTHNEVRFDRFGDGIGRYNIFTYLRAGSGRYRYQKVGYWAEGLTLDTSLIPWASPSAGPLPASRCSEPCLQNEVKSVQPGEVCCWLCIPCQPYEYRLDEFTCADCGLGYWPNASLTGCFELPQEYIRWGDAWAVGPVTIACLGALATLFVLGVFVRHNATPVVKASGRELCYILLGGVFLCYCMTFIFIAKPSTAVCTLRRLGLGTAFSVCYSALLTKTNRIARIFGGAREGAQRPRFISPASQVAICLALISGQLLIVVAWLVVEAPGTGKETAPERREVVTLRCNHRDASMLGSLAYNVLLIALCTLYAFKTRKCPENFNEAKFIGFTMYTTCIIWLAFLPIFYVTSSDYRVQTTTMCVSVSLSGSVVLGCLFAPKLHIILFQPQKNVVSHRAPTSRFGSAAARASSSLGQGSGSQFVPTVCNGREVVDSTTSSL

| Structure (SMILES) | pEC50 | further results |
| --- | --- | --- |
| COc1cc(C(F)(F)F)ccc1[C@H]1CCN(Cc2nc3cnccc3n2C)C[C@H]1C (single isomer, unassigned) [compound 141] | 5.88 |  |
| COc1cc(C(F)(F)F)ccc1[C@H]1CCN(Cc2nc3cnccc3n2C)C[C@H]1C (single isomer, unassigned) [compound 142] | < 6.50 |  |
| C[C@@H]1CN(Cc2nc3cnccc3n2C)CC[C@@H]1c1ccc(C(F)(F)F)cc1F (single isomer, unassigned) [compound 143] | 5.93 |  |
| C[C@@H]1CN(Cc2nc3cnccc3n2C)CC[C@@H]1c1ccc(C(F)(F)F)cc1F (single isomer, unassigned) [compound 144] | 7.64 |  |
| C[C@@H]1CN(Cc2nc3cnccc3n2C)CC[C@@H]1c1ccc(OC(F)(F)F)cc1F (single isomer, unassigned) [compound 159] | > 7.50 |  |
| C[C@@H]1CN(Cc2nc3ncccc3n2C)CC[C@@H]1c1ccc(C(F)(F)F)cc1Cl (single isomer, unassigned) [compound 162] | > 7.74 |  |
| C[C@@H]1CN(Cc2nc3ncccc3n2C)CC[C@@H]1c1ccc(C(F)(F)F)cc1Cl (single isomer, unassigned) [compound 163] | 6.40 |  |
| C[C@@H]1CN(Cc2nc3cnccc3n2C)CC[C@@H]1c1ccc(C(F)(F)F)cc1Cl (single isomer, unassigned) [compound 171] | 5.82 |  |
| C[C@@H]1CN(Cc2nc3cnccc3n2C)CC[C@@H]1c1ccc(C(F)(F)F)cc1Cl (single isomer, unassigned) [compound 172] | 7.31 |  |
| C[C@@H]1CN(Cc2nc3cnccc3n2C)CC[C@@H]1c1ccc(OC(F)(F)F)cc1 (single isomer, unassigned) [compound 175] | < 5.49 |  |
| C[C@@H]1CN(Cc2nc3cnccc3n2C)CC[C@@H]1c1ccc(OC(F)(F)F)cc1 (single isomer, unassigned) [compound 176] | 7.00 |  |
| C[C@@H]1CN(Cc2nc3cnccc3n2C)CC[C@@H]1c1ccc(C(F)(F)F)c(F)c1 (single isomer, unassigned) [compound 183] | 7.27 |  |
| C[C@@H]1CN(Cc2nc3cnccc3n2C)CC[C@@H]1c1ccc(C(F)(F)F)c(F)c1 (single isomer, unassigned) [compound 184] | < 5.57 |  |
| C[C@@H]1CN(Cc2nc3ncccc3n2C)CC[C@@H]1c1ccc(Cl)cc1Cl (single isomer, unassigned) [compound 185] | 7.19 |  |
| C[C@@H]1CN(Cc2nc3ncccc3n2C)CC[C@@H]1c1ccc(Cl)cc1Cl (single isomer, unassigned) [compound 186] | 6.21 |  |
| C[C@@H]1CN(Cc2nc3cnccc3n2C)CC[C@@H]1c1ccc(OC(F)(F)F)cc1F (single isomer, unassigned) [compound 196] | 7.25 |  |
| CC(C)Oc1ccc([C@H]2CCN(Cc3nc4ncccc4n3C)C[C@H]2C)c(F)c1 (single isomer, unassigned) [compound 217] | 7.53 |  |
| CC(C)Oc1ccc([C@H]2CCN(Cc3nc4ncccc4n3C)C[C@H]2C)c(F)c1 (single isomer, unassigned) [compound 218] | < 6.04 |  |
| CC(C)Oc1ccc([C@H]2CCN(Cc3nc4cnccc4n3C)C[C@H]2C)c(F)c1 (single isomer, unassigned) [compound 219] | 7.22 |  |
| CC(C)Oc1ccc([C@H]2CCN(Cc3nc4cnccc4n3C)C[C@H]2C)c(F)c1 (single isomer, unassigned) [compound 220] | < 5.92 |  |
| CC(C)Oc1ccc([C@H]2CCN(Cc3nc4ncccc4n3C)C[C@H]2C)c(Cl)c1 (single isomer, unassigned) [compound 221] | 7.11 |  |

| Structure (SMILES) | pEC50 | further results |
| --- | --- | --- |
| CC(C)Oc1ccc([C@H]2CCN(Cc3nc4ncccc4n3C)C[C@H]2C)c(Cl)c1 (single isomer, unassigned) [compound 222] | < 6.22 |  |
| C[C@@H]1CN(Cc2nc3ncccc3n2C)CC[C@@H]1c1ccc(OC(F)F)cc1 (single isomer, unassigned) [compound 223] | < 6.89 |  |
| C[C@@H]1CN(Cc2nc3ncccc3n2C)CC[C@@H]1c1ccc(OC(F)F)cc1 (single isomer, unassigned) [compound 224] | < 5.72 |  |
| C[C@@H]1CN(Cc2nc3cnccc3n2C)CC[C@@H]1c1cc(F)c(F)cc1F (single isomer, unassigned) [compound 225] | 7.02 |  |
| C[C@@H]1CN(Cc2nc3cnccc3n2C)CC[C@@H]1c1cc(F)c(F)cc1F (single isomer, unassigned) [compound 226] | < 5.90 |  |
| C[C@@H]1CN(Cc2nc3ncccc3n2C)CC[C@@H]1c1ccc(OC(F)F)cc1Cl (single isomer, unassigned) [compound 244] |  | pEC50 [1]: 7.44 |
| C[C@@H]1CN(Cc2nc3ncccc3n2C)CC[C@@H]1c1ccc(OC(F)F)cc1Cl (single isomer, unassigned) [compound 245] |  | pEC50 [1]: 6.58 |
| C[C@@H]1CN(Cc2nc3cnccc3n2C)CC[C@@H]1c1ccc(OC(F)F)cc1Cl (single isomer, unassigned) [compound 246] |  | pEC50 [1]: 7.00 |
| C[C@@H]1CN(Cc2nc3cnccc3n2C)CC[C@@H]1c1ccc(OC(F)F)cc1Cl (single isomer, unassigned) [compound 247] |  | pEC50 [1]: < 5.85 |
| C[C@@H]1CN(Cc2nc3ncccc3n2C)CC[C@@H]1c1ccc(F)cc1C(F)(F)F (single isomer, unassigned) [compound 251] |  | pEC50 [1]: 7.68 |
| C[C@@H]1CN(Cc2nc3ncccc3n2C)CC[C@@H]1c1ccc(F)cc1C(F)(F)F (single isomer, unassigned) [compound 252] |  | pEC50 [1]: 6.54 |
| C[C@@H]1CN(Cc2nc3cnccc3n2C)CC[C@@H]1c1ccc(OC(F)(F)F)cc1Cl (single isomer, unassigned) [compound 253] |  | pEC50 [1]: 5.74 |
| C[C@@H]1CN(Cc2nc3cnccc3n2C)CC[C@@H]1c1ccc(OC(F)(F)F)cc1Cl (single isomer, unassigned) [compound 254] |  | pEC50 [1]: 7.06 |
| C[C@@H]1CN(Cc2nc3ncccc3n2C)CC[C@@H]1c1ccc(OC(F)(F)F)cc1Cl (single isomer, unassigned) [compound 255] |  | pEC50 [1]: 7.11 |
| C[C@@H]1CN(Cc2nc3ncccc3n2C)CC[C@@H]1c1ccc(OC(F)(F)F)cc1Cl (single isomer, unassigned) [compound 256] |  | pEC50 [1]: < 6.15 |
| COc1cc(F)ccc1[C@H]1CCN(Cc2nc3cnccc3n2C)C[C@H]1C (single isomer, unassigned) [compound 259] |  | pEC50 [1]: 5.84 |
| COc1cc(F)ccc1[C@H]1CCN(Cc2nc3cnccc3n2C)C[C@H]1C (single isomer, unassigned) [compound 260] |  | pEC50 [1]: 6.90 |
| FC(F)(F)c1ccc(C2CCN(Cc3nc4nccc5c4n3CCC5)CC2)cc1 [Example 126, 2-({4-[4-(trifluoromethyl)phenyl]-piperidin-1-yl}methyl)-5,6-dihydro-4H-imidazo[4,5,1-ij]-1,7-naphthyridine] | 7.20 | pEC50 [2]: 7.20 |
| COc1cc(C(F)(F)F)ccc1C1CCN(Cc2nc3nccc4c3n2CCC4)CC1 [Example 135, 2-({4-[2-methoxy-4-(trifluoromethyl)phenyl]-piperidin-1-yl}methyl)-5,6-dihydro-4H-imidazo[4,5,1-ij]-1,7-naphthyridine] | > 8.27 | pEC50 [2]: > 8.27 |
| CCCOc1ccc(Cl)cc1C1CCN(Cc2nc3ncccc3n2C)CC1 [compound 38] | 6.41 |  |
| CCCOc1ccc(Cl)cc1C1CCN(Cc2nc3cnccc3n2C)CC1 [compound 39] | 6.40 |  |

From patent US20080312271A1, “AZABENZIMIDAZOLYL COMPOUNDS” (Pfizer Inc., priority 2006, published 2008)
